Test results from ChEMBL document CHEMBL1201861, “Genomics of Drug Sensitity in Cancer screening data, Wellcome Trust Sanger Institute”.
pIC50: −log10 of the molar value.

Legend:
Experiment in all cases: cells
KM12 = format: functional, cell-based, Homo sapiens; conditions: Homo sapiens, KM12;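 further: KM12 cell growth inhibition, read out with a cell viability assay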
Description: SANGER: Inhibition of human KM12 cell growth in a cell viability assay.

CGTH-W-1 = format: functional, cell-based, Homo sapiens; conditions: Homo sapiens, CGTH-W-1;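 further: growth inhibition of human CGTH-W-1 cells measured by cell viability assay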
Description: SANGER: Inhibition of human CGTH-W-1 cell growth in a cell viability assay.

RS4-11 = format: functional, cell-based, Homo sapiens; conditions: Homo sapiens, RS4-11;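 further: growth inhibition of RS4-11 cells, read out by a cell viability assay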
Description: SANGER: Inhibition of human RS4-11 cell growth in a cell viability assay.

LS-411N = format: functional, cell-based, Homo sapiens; conditions: Homo sapiens, LS-411N
ES1 = format: functional, cell-based, Homo sapiens; conditions: Homo sapiens, ES1;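 further: growth inhibition of ES1 cells, read out with a cell viability assay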
Description: SANGER: Inhibition of human ES1 cell growth in a cell viability assay.

BT-474 = format: functional, cell-based, Homo sapiens; conditions: Homo sapiens, BT-474
Description: SANGER: Inhibition of human BT-474 cell growth in a cell viability assay.

ES3 = format: functional, cell-based, Homo sapiens; conditions: Homo sapiens, ES3;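 further: growth inhibition of ES3 cells, read out with a cell viability assay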
Description: SANGER: Inhibition of human ES3 cell growth in a cell viability assay.

NCI-H1092 = format: functional, cell-based, Homo sapiens; conditions: Homo sapiens, NCI-H1092;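 further: cell growth inhibition measured with a cell viability assay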
Description: SANGER: Inhibition of human NCI-H1092 cell growth in a cell viability assay.

NCI-H446 = format: functional, cell-based, Homo sapiens; conditions: Homo sapiens, NCI-H446;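 further: growth inhibition of NCI-H446 cells determined by a cell viability assay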
Description: SANGER: Inhibition of human NCI-H446 cell growth in a cell viability assay.

SW 962 = format: functional, cell-based, Homo sapiens; conditions: Homo sapiens, SW 962;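 further: growth inhibition of human SW962 cells, read out by a cell viability assay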
Description: SANGER: Inhibition of human SW962 cell growth in a cell viability assay.

UACC-257 = format: functional, cell-based, Homo sapiens; conditions: Homo sapiens, UACC-257
Description: SANGER: Inhibition of human UACC-257 cell growth in a cell viability assay.

KP-N-YS = format: functional, cell-based, Homo sapiens; conditions: Homo sapiens, KP-N-YS;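 further: cell viability assay measuring inhibition of cell line growth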
Description: SANGER: Inhibition of human KP-N-YS cell growth in a cell viability assay.

U-266 = format: functional, cell-based, Homo sapiens; conditions: Homo sapiens, U-266
Description: SANGER: Inhibition of human U-266 cell growth in a cell viability assay.

MLMA = format: functional, cell-based, Homo sapiens; conditions: Homo sapiens, MLMA;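 further: growth inhibition of MLMA cells (human), determined through a cell viability readout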
Description: SANGER: Inhibition of human MLMA cell growth in a cell viability assay.

MN-60 = format: functional, cell-based, Homo sapiens; conditions: Homo sapiens, MN-60;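 further: growth inhibition of the MN-60 cell line, determined with a cell viability assay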
Description: SANGER: Inhibition of human MN-60 cell growth in a cell viability assay.

SK-MEL-2 = format: functional, cell-based, Homo sapiens; conditions: Homo sapiens, SK-MEL-2;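 further: growth inhibition of human SK-MEL-2 cells measured with a cell viability assay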
Description: SANGER: Inhibition of human SK-MEL-2 cell growth in a cell viability assay.

KARPAS-299 = format: functional, cell-based, Homo sapiens; conditions: Homo sapiens, KARPAS-299
Description: SANGER: Inhibition of human KARPAS-299 cell growth in a cell viability assay.

NCI-H1581 = format: functional, cell-based, Homo sapiens; conditions: Homo sapiens, NCI-H1581;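 further: cell growth inhibition read out by a viability assay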
Description: SANGER: Inhibition of human NCI-H1581 cell growth in a cell viability assay.

NCI-H1770 = format: functional, cell-based, Homo sapiens; conditions: Homo sapiens, NCI-H1770;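 further: growth inhibition of NCI-H1770 cells determined with a viability readout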
Description: SANGER: Inhibition of human NCI-H1770 cell growth in a cell viability assay.

TGBC1TKB = format: functional, cell-based, Homo sapiens; conditions: Homo sapiens, TGBC1TKB;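 further: growth inhibition of TGBC1TKB cells, read out by a cell viability assay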
Description: SANGER: Inhibition of human TGBC1TKB cell growth in a cell viability assay.

HCE-4 = format: functional, cell-based; conditions: Homo sapiens;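 further: cell viability assay measuring inhibition of growth in the human HCE-4 cell line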
Description: SANGER: Inhibition of human HCE-4 cell growth in a cell viability assay.

OMC-1 = format: functional, cell-based, Homo sapiens; conditions: Homo sapiens, OMC-1;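 further: growth inhibition of the OMC-1 cell line, measured by a cell viability assay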
Description: SANGER: Inhibition of human OMC-1 cell growth in a cell viability assay.

TE-5 = format: functional, cell-based, Homo sapiens; conditions: Homo sapiens, TE-5;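 further: inhibition of cell growth, read out by a cell viability assay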
Description: SANGER: Inhibition of human TE-5 cell growth in a cell viability assay.

JVM-3 = format: functional, cell-based, Homo sapiens; conditions: Homo sapiens, JVM-3;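 further: growth inhibition of human JVM-3 cells, read out with a cell viability assay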
Description: SANGER: Inhibition of human JVM-3 cell growth in a cell viability assay.

HT = format: functional, cell-based, Homo sapiens; conditions: Homo sapiens, HT
Description: SANGER: Inhibition of human HT cell growth in a cell viability assay.

KG-1 = format: functional, cell-based, Homo sapiens; conditions: Homo sapiens, KG-1;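 further: growth inhibition of KG-1 cells, read out by a cell viability assay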
Description: SANGER: Inhibition of human KG-1 cell growth in a cell viability assay.

NCI-H1648 = format: functional, cell-based, Homo sapiens; conditions: Homo sapiens, NCI-H1648;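 further: cell viability assay measuring inhibition of NCI-H1648 cell growth, from the Sanger screening data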
Description: SANGER: Inhibition of human NCI-H1648 cell growth in a cell viability assay.

KNS-81-FD = format: functional, cell-based, Homo sapiens; conditions: Homo sapiens, KNS-81-FD;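 further: growth inhibition of KNS-81-FD cells, read out with a cell viability assay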
Description: SANGER: Inhibition of human KNS-81-FD cell growth in a cell viability assay.

NCI-H526 = format: functional, cell-based, Homo sapiens; conditions: Homo sapiens, NCI-H526;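 further: growth inhibition of the human NCI-H526 cell line, measured by a cell viability assay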
Description: SANGER: Inhibition of human NCI-H526 cell growth in a cell viability assay.

PSN1 = format: functional, cell-based, Homo sapiens; conditions: Homo sapiens, PSN1;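 further: suppression of growth of human PSN1 cells, read out by a cell viability assay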
Description: SANGER: Inhibition of human PSN1 cell growth in a cell viability assay.

SNU1 = format: functional, cell-based, Homo sapiens; conditions: Homo sapiens, SNU1;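 further: growth inhibition of human NCI-SNU-1 cells, measured with a cell viability assay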
Description: SANGER: Inhibition of human NCI-SNU-1 cell growth in a cell viability assay.

RKO = format: functional, cell-based, Homo sapiens; conditions: Homo sapiens, RKO;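 further: growth inhibition of human RKO cells, read out with a cell viability assay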
Description: SANGER: Inhibition of human RKO cell growth in a cell viability assay.

COLO-824 = format: functional, cell-based, Homo sapiens; conditions: Homo sapiens, COLO-824
Description: SANGER: Inhibition of human COLO-824 cell growth in a cell viability assay.

KU812 cell line = format: functional, cell-based, Homo sapiens; conditions: Homo sapiens, KU812;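 further: growth inhibition of KU812 cells, read out with a cell viability assay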
Description: SANGER: Inhibition of human KU812 cell growth in a cell viability assay.

J-RT3-T3-5 = format: functional, cell-based, Homo sapiens; conditions: Homo sapiens, J-RT3-T3-5;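 further: cell viability assay measuring growth inhibition of human J-RT3-T3-5 cells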
Description: SANGER: Inhibition of human J-RT3-T3-5 cell growth in a cell viability assay.

NOS-1 = format: functional, cell-based, Homo sapiens; conditions: Homo sapiens, NOS-1;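 further: growth inhibition of the human NOS-1 cell line, read out with a cell viability assay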
Description: SANGER: Inhibition of human NOS-1 cell growth in a cell viability assay.

TE-11 = format: functional, cell-based; conditions: Homo sapiens;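 further: growth inhibition of human TE-11 cells, read out by a cell viability assay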
Description: SANGER: Inhibition of human TE-11 cell growth in a cell viability assay.

DSH1 = format: functional, cell-based; conditions: Homo sapiens;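 further: growth inhibition of human DSH1 cells, measured with a cell viability readout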
Description: SANGER: Inhibition of human DSH1 cell growth in a cell viability assay.

KY821 = format: functional, cell-based, Homo sapiens; conditions: Homo sapiens, KY821;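 further: growth inhibition of human KY821 cells, read out by a cell viability assay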
Description: SANGER: Inhibition of human KY821 cell growth in a cell viability assay.

MZ1-PC = format: functional, cell-based, Homo sapiens; conditions: Homo sapiens, MZ1-PC;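 further: cell viability assay measuring growth inhibition of human MZ1-PC cells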
Description: SANGER: Inhibition of human MZ1-PC cell growth in a cell viability assay.

KALS-1 = format: functional, cell-based, Homo sapiens; conditions: Homo sapiens, KALS-1; read-out: IC50;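 further: growth inhibition of KALS-1 cells, determined with a cell viability assay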
Description: SANGER: Inhibition of human KALS-1 cell growth in a cell viability assay.

EW-1 = format: functional, cell-based, Homo sapiens; conditions: Homo sapiens, EW-1;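 further: growth inhibition of the human EW-1 cell line, read out by a cell viability assay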
Description: SANGER: Inhibition of human EW-1 cell growth in a cell viability assay.

LU-134-A = format: functional, cell-based, Homo sapiens; conditions: Homo sapiens, LU-134-A
Description: SANGER: Inhibition of human LU-134-A cell growth in a cell viability assay.

EW-3 = format: functional, cell-based, Homo sapiens; conditions: Homo sapiens, EW-3;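 further: cell viability assay read-out, IC50 reflects inhibition of growth of the EW-3 cells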
Description: SANGER: Inhibition of human EW-3 cell growth in a cell viability assay.

D-263MG = format: functional, cell-based, Homo sapiens; conditions: Homo sapiens, D-263MG
Description: SANGER: Inhibition of human D-263MG cell growth in a cell viability assay.

D-247MG = format: functional, cell-based; conditions: Homo sapiens
Description: SANGER: Inhibition of human D-247MG cell growth in a cell viability assay.

LC-2-ad = format: functional, cell-based, Homo sapiens; conditions: Homo sapiens, LC-2-ad;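 further: growth inhibition of human LC-2-ad cells, read out with a cell viability assay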
Description: SANGER: Inhibition of human LC-2-ad cell growth in a cell viability assay.

OCI-AML2 = format: functional, cell-based, Homo sapiens; conditions: Homo sapiens, OCI-AML2;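 further: growth inhibition of OCI-AML2 cells, read out with a cell viability assay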
Description: SANGER: Inhibition of human OCI-AML2 cell growth in a cell viability assay.

BB65-RCC = format: functional, cell-based, Homo sapiens; conditions: Homo sapiens, BB65-RCC;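 further: growth inhibition of the cell line, measured with a cell viability assay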
Description: SANGER: Inhibition of human BB65-RCC cell growth in a cell viability assay.

A253 cell line = format: functional, cell-based, Homo sapiens; conditions: Homo sapiens, A253;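 further: growth inhibition of A253 cells, read out with a cell viability assay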
Description: SANGER: Inhibition of human A253 cell growth in a cell viability assay.

SMILES: NC(=O)c1ccc(N(C(N)=O)c2c(F)cccc2F)nc1-c1ccc(F)cc1F [VX-702]
- pIC50 (KM12): < 5.70
- pIC50 (CGTH-W-1): < 5.70
- pIC50 (RS4-11): < 5.70
- pIC50 (LS-411N): < 5.70
- pIC50 (ES1): < 5.70
- pIC50 (BT-474): < 5.70
- pIC50 (ES3): < 5.70
- pIC50 (NCI-H1092): < 5.70
- pIC50 (NCI-H446): < 5.70
- pIC50 (SW 962): < 5.70
- pIC50 (UACC-257): 5.92
- pIC50 (KP-N-YS): < 5.70
- pIC50 (U-266): < 5.70
- pIC50 (MLMA): < 5.70
- pIC50 (MN-60): < 5.70
- pIC50 (SK-MEL-2): < 5.70
- pIC50 (KARPAS-299): < 5.70
- pIC50 (NCI-H1581): < 5.70
- pIC50 (NCI-H1770): < 5.70
- pIC50 (TGBC1TKB): < 5.70
- pIC50 (HCE-4): < 5.70
- pIC50 (OMC-1): < 5.70
- pIC50 (TE-5): < 5.70
- pIC50 (JVM-3): < 5.70
- pIC50 (HT): < 5.70
- pIC50 (KG-1): < 5.70
- pIC50 (NCI-H1648): < 5.70
- pIC50 (KNS-81-FD): < 5.70
- pIC50 (NCI-H526): < 5.70
- pIC50 (PSN1): < 5.70
- pIC50 (SNU1): < 5.70
- pIC50 (RKO): < 5.70
- pIC50 (COLO-824): < 5.70
- pIC50 (KU812 cell line): 6.90
- pIC50 (J-RT3-T3-5): < 5.70
- pIC50 (NOS-1): < 5.70
- pIC50 (TE-11): < 5.70
- pIC50 (DSH1): < 5.70
- pIC50 (KY821): 6.40
- pIC50 (MZ1-PC): < 5.70
- pIC50 (KALS-1): < 5.70
- pIC50 (EW-1): < 5.70
- pIC50 (LU-134-A): < 5.70
- pIC50 (EW-3): 6.18
- pIC50 (D-263MG): < 5.70
- pIC50 (D-247MG): < 5.70
- pIC50 (LC-2-ad): < 5.70
- pIC50 (OCI-AML2): < 5.70
- pIC50 (BB65-RCC): < 5.70

SMILES: Nc1ccccc1NC(=O)c1ccc(CNC(=O)OCc2cccnc2)cc1 [ENTINOSTAT]
- pIC50 (KM12): 5.78
- pIC50 (CGTH-W-1): 5.62
- pIC50 (RS4-11): < 5.30
- pIC50 (LS-411N): 5.88
- pIC50 (A253 cell line): < 5.30
- pIC50 (ES1): 6.95
- pIC50 (BT-474): 5.82
- pIC50 (ES3): < 5.30
- pIC50 (NCI-H1092): 5.69
- pIC50 (NCI-H446): < 5.30
- pIC50 (SW 962): < 5.30
- pIC50 (UACC-257): 5.46
- pIC50 (KP-N-YS): < 5.30
- pIC50 (U-266): 5.55
- pIC50 (MLMA): 5.73
- pIC50 (MN-60): 5.39
- pIC50 (SK-MEL-2): < 5.30
- pIC50 (KARPAS-299): 6.23
- pIC50 (NCI-H1581): < 5.30
- pIC50 (NCI-H1770): < 5.30
- pIC50 (TGBC1TKB): < 5.30
- pIC50 (OMC-1): < 5.30
- pIC50 (TE-5): 5.49
- pIC50 (JVM-3): < 5.30
- pIC50 (HT): 5.68
- pIC50 (KG-1): 5.79
- pIC50 (NCI-H1648): < 5.30
- pIC50 (KNS-81-FD): < 5.30
- pIC50 (NCI-H526): 6.20
- pIC50 (PSN1): 5.85
- pIC50 (SNU1): < 5.30
- pIC50 (RKO): 5.42
- pIC50 (COLO-824): < 5.30
- pIC50 (KU812 cell line): 5.77
- pIC50 (J-RT3-T3-5): 6.47
- pIC50 (NOS-1): 6.71
- pIC50 (DSH1): 6.54
- pIC50 (KY821): < 5.30
- pIC50 (MZ1-PC): 5.44
- pIC50 (KALS-1): 6.15
- pIC50 (EW-1): 5.56
- pIC50 (LU-134-A): 6.24
- pIC50 (EW-3): < 5.30
- pIC50 (D-263MG): < 5.30
- pIC50 (D-247MG): < 5.30
- pIC50 (LC-2-ad): 6.27
- pIC50 (OCI-AML2): 5.44
- pIC50 (BB65-RCC): 5.40
